Consider nine compounds from patent US20250179047A1, “5-[7-(3,4-DIHYDRO-1H-ISOQUINOLINE-2-CARBONYL)-1,2,3,4 TETRAHYDROISOQUINOLIN-6-YL]-1H-PYRROLE-3-CARBOXAMIDE DERIVATIVES, PHARMACEUTICAL COMPOSITIONS CONTAINING THEM AND THEIR USES AS PRO-APOPTOTIC AGENTS” (LES LABORATOIRES SERVIER, priority 2022, published 2025).

Molecules are shown by their SMILES.

In experiment [1] the target is BCL2 WT (Homo sapiens (Human), UniProt P10415). Nature of the experiment: TR-FRET competitive binding assay, BCL2 WT. Conditions: Ki determined from IC50, read-out: TR_FRET EKI_Bcl2 WT. In a few lines:
(§1)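 Ki derived from IC50 (11-point dilution, 520/495 nm emission ratio) for displacing a fluorescein-labelled PUMA peptide (2 or 20 nM). Target was 0.5 nM E. coli-expressed Halo-tagged BCL2 (1-207) or BCLXL (2-196), terbium-labelled on Halo. Incubation 2 h at 23°C in pH 7.5 Hepes with 150 mM NaCl and 5% DMSO.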

Experiment [2] deals with BCL2 G101V (Homo sapiens, UniProt P10415, G101V). Nature of the experiment: TR-FRET competitive binding assay, BCL2 G101V. Particulars: BCL2 G101V; Ki determined from IC50; read-out: TR_FRET EKI_Bcl2 G101V. In a few lines:
as §1
For orientation: Time-resolved FRET reads energy transfer from a long-lived donor to a nearby acceptor.

Experiment [3] deals with BCL2 G101V. Nature of the experiment: TR-FRET competitive binding assay, BCL2 G101V. Set-up: species or system human. Particulars: ratio Ki BCL2 G101V / Ki BCL2 WT. In a few lines: as §1
Experiment [4] deals with BCL2 D103Y (Homo sapiens, UniProt P10415, D103Y). Nature of the experiment: TR-FRET competitive binding assay, BCL2 D103Y. Conditions: Ki determined from IC50, read-out: TR_FRET EKI_Bcl2 D103Y. The method, boiled down: as §1
Experiment [5] addresses BCLXL WT (Homo sapiens (Human), UniProt Q07817). Nature of the experiment: TR-FRET competitive binding assay, BCLXL WT. Conditions: for Ki: BCLXL WT, Ki determined from IC50, read-out: TR_FRET EKI BclxL; for TR_FRET EKI BCLxL/WT selectivty ratio: ratio Ki BCLxL / Ki BCL2 WT. In a few lines:
as §1

Experiment [6] deals with KMS-12-PE Bcl-2 WT. Nature of the experiment: In vitro cytotoxicity CellTiter-Glo 48 h, KMS-12-PE Bcl-2 WT. Particulars: Homo sapiens, KMS-12-PE, C50 = concentration needed to reach 50% of the cellular viability. The experiment is classed as cell-based. In a few lines:
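Bcl-2 WT- and G101V-expressing KMS-12-PE cells; 48 h treatment at 37 °C, 5% CO2; CellTiter-Glo ATP luminescence; C50 from 11-point curves.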
(ATP-based viability assays read luminescence as a measure of living cells.)

Sequence of BCLXL WT (Q07817 other isoform, or with tags, fused parts or gaps): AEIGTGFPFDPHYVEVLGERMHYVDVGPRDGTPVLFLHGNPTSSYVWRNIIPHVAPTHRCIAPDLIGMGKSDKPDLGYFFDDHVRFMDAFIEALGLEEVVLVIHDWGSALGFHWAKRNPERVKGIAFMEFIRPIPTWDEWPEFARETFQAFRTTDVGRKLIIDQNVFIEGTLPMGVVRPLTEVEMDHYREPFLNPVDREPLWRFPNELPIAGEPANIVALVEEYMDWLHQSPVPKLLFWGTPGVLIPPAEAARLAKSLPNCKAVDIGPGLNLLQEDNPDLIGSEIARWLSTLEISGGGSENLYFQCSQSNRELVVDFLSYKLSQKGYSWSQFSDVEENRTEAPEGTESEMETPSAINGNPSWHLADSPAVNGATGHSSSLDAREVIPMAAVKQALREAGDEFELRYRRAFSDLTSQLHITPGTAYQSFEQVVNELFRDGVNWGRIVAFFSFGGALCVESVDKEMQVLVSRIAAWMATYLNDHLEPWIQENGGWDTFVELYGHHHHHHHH

The IC50 is the midpoint of a concentration-inhibition curve. Consider `Cc1c(C(=O)N(c2ccccc2)c2cnn(C(F)F)c2)cc(-c2cc3c(cc2C(=O)N2Cc4ccccc4C[C@H]2CF)CN(C(=O)Cc2ccc(OCCN4CCOCC4)cc2)CC3)n1C` [Example 211, N-[1-(difluoromethyl)pyrazol-4-yl]-5-[7-[(3S)-3-(fluoromethyl)-3,4-dihydro-1H-isoquinoline-2-carbonyl]-2-[2-[4-(2-morpholinoethoxy)phenyl]acetyl]-3,4-dihydro-1H-isoquinolin-6-yl]-1,2-dimethyl-N-phenyl-pyrrole-3-carboxamide], for which the Ki in experiment [1] is 0.07 nM; in experiment [2], 5.3 nM; in experiment [4], 0.18 nM; in experiment [5], 26 nM. Besides, in experiment [3], the “TR_FRET EKI G101V/WT selectivty ratio” value worked out at 72.1. Besides, the “TR_FRET EKI BCLxL/WT selectivty ratio” value in experiment [5] amounted to 351.4. In experiment [6], the IC50 stood at 0.0157 µM.
Turning to `Cc1c(C(=O)N(c2ccccc2)c2cnn(C)c2)cc(-c2cc3c(cc2C(=O)N2Cc4ccccc4C[C@H]2C)CN(C(=O)Cc2cccc(N4CC5(CN(C)C5)C4)c2)CC3)n1C` [Example 217, 1,2-dimethyl-5-[2-[2-[3-(6-methyl-2,6-diazaspiro[3.3]heptan-2-yl)phenyl]acetyl]-7-[(3R)-3-methyl-3,4-dihydro-1H-isoquinoline-2-carbonyl]-3,4-dihydro-1H-isoquinolin-6-yl]-N-(1-methylpyrazol-4-yl)-N-phenyl-pyrrole-3-carboxamide], the Ki in experiment [1] was 0.02 nM; in experiment [2] it was 2 nM; in experiment [4], 0.09 nM; in experiment [5] it was 0.6 nM. Also, the “TR_FRET EKI G101V/WT selectivty ratio” value in experiment [3] is 88.7. For the same compound, the “TR_FRET EKI BCLxL/WT selectivty ratio” value in experiment [5] was found to be 24.9. In experiment [6], the IC50 came out at 0.0453 µM.
For the compound `COCCn1cc(N(C(=O)c2cc(-c3cc4c(cc3C(=O)N3Cc5ccccc5C[C@H]3C)CN(C(=O)Cc3ccc(OCCN5CCOCC5)cc3)CC4)n(C)c2C)c2ccccc2)cn1` [Example 196, N-[1-(2-methoxyethyl)pyrazol-4-yl]-1,2-dimethyl-5-[7-[(3R)-3-methyl-3,4-dihydro-1H-isoquinoline-2-carbonyl]-2-[2-[4-(2-morpholinoethoxy)phenyl]acetyl]-3,4-dihydro-1H-isoquinolin-6-yl]-N-phenyl-pyrrole-3-carboxamide], the Ki is 0.03 nM in experiment [1], 2.7 nM in experiment [2], 0.09 nM in experiment [4] and 9.6 nM in experiment [5]. Besides, in experiment [3], the “TR_FRET EKI G101V/WT selectivty ratio” value is recorded as 83.2. In experiment [5], the “TR_FRET EKI BCLxL/WT selectivty ratio” value was found to be 301.1. For the same compound, the IC50 in experiment [6] was found to be 0.0089 µM.
Regarding `Cc1c(C(=O)N(c2ccc(F)cc2)c2cnn(C)c2)cc(-c2cc3c(cc2C(=O)N2Cc4ccccc4C[C@H]2C)CN(C(=O)Cc2ccc(OCCN4CCOCC4)cc2)CC3)n1C` [Example 200, N-(4-fluorophenyl)-1,2-dimethyl-5-[7-[(3R)-3-methyl-3,4-dihydro-1H-isoquinoline-2-carbonyl]-2-[2-[4-(2-morpholinoethoxy)phenyl]acetyl]-3,4-dihydro-1H-isoquinolin-6-yl]-N-(1-methylpyrazol-4-yl)pyrrole-3-carboxamide], the Ki in experiment [1] was determined as 0.06 nM; in experiment [2], 5.5 nM; in experiment [4], 0.15 nM; in experiment [5], 26 nM. Moreover, the “TR_FRET EKI G101V/WT selectivty ratio” value in experiment [3] was found to be 88.0. In experiment [5], the “TR_FRET EKI BCLxL/WT selectivty ratio” value is recorded as 419.8. In experiment [6], it took 0.0155 µM to reach half-maximal inhibition (IC50).
In the case of `Cc1nn(C)cc1N(C(=O)c1cc(-c2cc3c(cc2C(=O)N2Cc4ccccc4C[C@H]2C)CN(C(=O)Cc2ccc(OCCN(C)C)cc2)CC3)n(C)c1C)c1ccccc1` [Example 221, 5-[2-[2-[4-[2-(dimethylamino)ethoxy]phenyl]acetyl]-7-[(3R)-3-methyl-3,4-dihydro-1H-isoquinoline-2-carbonyl]-3,4-dihydro-1H-isoquinolin-6-yl]-N-(1,3-dimethylpyrazol-4-yl)-1,2-dimethyl-N-phenyl-pyrrole-3-carboxamide], the Ki in experiment [1] was found to be 0.24 nM; in experiment [2], 19.1 nM; in experiment [4] it was 0.53 nM; in experiment [5], 28.3 nM. The “TR_FRET EKI G101V/WT selectivty ratio” value in experiment [3] is recorded as 79.5. Also, the “TR_FRET EKI BCLxL/WT selectivty ratio” value in experiment [5] turned out to be 118.0. For the same compound, the IC50 in experiment [6] is 0.121 µM.
On to `Cc1c(N(C(=O)c2cc(-c3cc4c(cc3C(=O)N3Cc5ccccc5C[C@H]3C)CN(C(=O)Cc3ccc(OCCN5CCOCC5)cc3)CC4)n(C)c2C)c2ccccc2)cnn1C(F)F` [Example 215, N-[1-(difluoromethyl)-5-methyl-pyrazol-4-yl]-1,2-dimethyl-5-[7-[(3R)-3-methyl-3,4-dihydro-1H-isoquinoline-2-carbonyl]-2-[2-[4-(2-morpholinoethoxy)phenyl]acetyl]-3,4-dihydro-1H-isoquinolin-6-yl]-N-phenyl-pyrrole-3-carboxamide], for which the Ki in experiment [1] turned out to be 0.06 nM; in experiment [2], 4.6 nM; in experiment [4] it was 0.13 nM; in experiment [5], 16 nM. Also, the “TR_FRET EKI G101V/WT selectivty ratio” value in experiment [3] is 80.9. In experiment [5], the “TR_FRET EKI BCLxL/WT selectivty ratio” value stood at 280.7. For the same compound, the IC50 in experiment [6] was determined as 0.0147 µM.
As to `COc1ncc(N(C(=O)c2cc(-c3cc4c(cc3C(=O)N3Cc5ccccc5C[C@H]3C)CN(C(=O)Cc3ccc(OCCN(C)C)cc3F)CC4)n(C)c2C)c2ccccc2)cc1F` [Example 219, 5-[2-[2-[4-[2-(dimethylamino)ethoxy]-2-fluoro-phenyl]acetyl]-7-[(3R)-3-methyl-3,4-dihydro-1H-isoquinoline-2-carbonyl]-3,4-dihydro-1H-isoquinolin-6-yl]-N-(5-fluoro-6-methoxy-3-pyridyl)-1,2-dimethyl-N-phenyl-pyrrole-3-carboxamide], the Ki in experiment [1] is 0.05 nM; in experiment [2], 4.6 nM; in experiment [4] it was 0.13 nM; in experiment [5], 2.9 nM. The “TR_FRET EKI G101V/WT selectivty ratio” value in experiment [3] was 89.8. In addition, in experiment [5], the “TR_FRET EKI BCLxL/WT selectivty ratio” value worked out at 57.8. The midpoint of inhibition in experiment [6], the IC50, lay at 0.131 µM.
As to `Cc1c(C(=O)N(c2ccccc2)c2cnn(C(F)F)c2)cc(-c2cc3c(cc2C(=O)N2Cc4ccccc4C[C@H]2C)CN(C(=O)Cc2ccc(OCCN4CCOCC4)cc2F)CC3)n1C` [Example 193, N-[1-(difluoromethyl)pyrazol-4-yl]-5-[2-[2-[2-fluoro-4-(2-morpholinoethoxy)phenyl]acetyl]-7-[(3R)-3-methyl-3,4-dihydro-1H-isoquinoline-2-carbonyl]-3,4-dihydro-1H-isoquinolin-6-yl]-1,2-dimethyl-N-phenyl-pyrrole-3-carboxamide], the Ki in experiment [1] was 0.04 nM; in experiment [2], 3.1 nM; in experiment [4], 0.1 nM; in experiment [5], 11 nM. For the same compound, the “TR_FRET EKI G101V/WT selectivty ratio” value in experiment [3] is 72.0. Further, the “TR_FRET EKI BCLxL/WT selectivty ratio” value in experiment [5] stood at 256.9. This compound gave an IC50 in experiment [6] of 0.0062 µM.
In the case of `COc1ncc(N(C(=O)c2cc(-c3cc4c(cc3C(=O)N3Cc5ccccc5C[C@H]3C)CN(C(=O)Cc3ccc(OCCN5CCOCC5)cc3F)CC4)n(C)c2C)c2ccccc2)cc1C#N` [Example 202, N-(5-cyano-6-methoxy-3-pyridyl)-5-[2-[2-[2-fluoro-4-(2-morpholinoethoxy)phenyl]acetyl]-7-[(3R)-3-methyl-3,4-dihydro-1H-isoquinoline-2-carbonyl]-3,4-dihydro-1H-isoquinolin-6-yl]-1,2-dimethyl-N-phenyl-pyrrole-3-carboxamide], the Ki is 0.05 nM in experiment [1], 1.2 nM in experiment [2], 0.11 nM in experiment [4] and 10.9 nM in experiment [5]. In addition, in experiment [3], the “TR_FRET EKI G101V/WT selectivty ratio” value is recorded as 22.9. For the same compound, in experiment [5], the “TR_FRET EKI BCLxL/WT selectivty ratio” value stood at 214.7. The compound also yielded a 50% inhibitory concentration (IC50) in experiment [6] of 0.0256 µM.
